Experimental data from US20220151962A1, “NOVEL INHIBITORS OF HISTONE DEACETYLASE 10” (Deutsches Krebsforschungszentrum, priority 2019, published 2022).
“And” between values parts separate entries of the source, which are not always exact repeats. Identical values can stand only once. Like-named read-outs stand apart in the source and are kept apart here.

Legend:
[1] = biological target: T1, TwinStrep-GST-HDAC10 (Homo sapiens, UniProt Q969S8); test: HDAC10 TR-FRET assay (Tubastatin-AF647-Tracer displacement); assay type: binding
T1 construct: made in house; host or cells: Sf21 insect cells (baculovirus, pFastBac1)
T1 sequence (Q969S8 1-669): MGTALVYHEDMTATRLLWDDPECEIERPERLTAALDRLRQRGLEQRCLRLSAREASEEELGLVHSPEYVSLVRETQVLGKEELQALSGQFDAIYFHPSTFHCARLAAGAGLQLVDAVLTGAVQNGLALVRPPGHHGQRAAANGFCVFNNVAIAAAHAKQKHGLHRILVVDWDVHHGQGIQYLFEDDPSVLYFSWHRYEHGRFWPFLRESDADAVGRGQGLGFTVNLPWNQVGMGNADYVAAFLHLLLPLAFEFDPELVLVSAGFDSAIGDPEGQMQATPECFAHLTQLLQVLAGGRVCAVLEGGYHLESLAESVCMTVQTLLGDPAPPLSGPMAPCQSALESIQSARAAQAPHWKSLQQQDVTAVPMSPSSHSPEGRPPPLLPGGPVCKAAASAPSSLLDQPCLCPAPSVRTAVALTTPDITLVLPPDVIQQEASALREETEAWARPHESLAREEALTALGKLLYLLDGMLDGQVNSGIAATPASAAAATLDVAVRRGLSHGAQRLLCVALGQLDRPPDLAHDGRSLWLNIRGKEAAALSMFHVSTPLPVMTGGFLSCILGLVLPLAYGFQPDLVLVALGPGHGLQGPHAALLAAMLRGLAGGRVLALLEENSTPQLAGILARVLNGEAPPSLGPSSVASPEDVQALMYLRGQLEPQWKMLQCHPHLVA

[2] = biological target: T2, HDAC1 (Homo sapiens, UniProt Q13547); test: HDAC1 (ZMAL) fluorogenic activity assay; assay type: biochemical; conditions: read-out: HDAC1 (ZMAL) percent enzyme inhibition
T2 construct: purchased BPS Bioscience 50051
T2 sequence (Q13547 whole entry): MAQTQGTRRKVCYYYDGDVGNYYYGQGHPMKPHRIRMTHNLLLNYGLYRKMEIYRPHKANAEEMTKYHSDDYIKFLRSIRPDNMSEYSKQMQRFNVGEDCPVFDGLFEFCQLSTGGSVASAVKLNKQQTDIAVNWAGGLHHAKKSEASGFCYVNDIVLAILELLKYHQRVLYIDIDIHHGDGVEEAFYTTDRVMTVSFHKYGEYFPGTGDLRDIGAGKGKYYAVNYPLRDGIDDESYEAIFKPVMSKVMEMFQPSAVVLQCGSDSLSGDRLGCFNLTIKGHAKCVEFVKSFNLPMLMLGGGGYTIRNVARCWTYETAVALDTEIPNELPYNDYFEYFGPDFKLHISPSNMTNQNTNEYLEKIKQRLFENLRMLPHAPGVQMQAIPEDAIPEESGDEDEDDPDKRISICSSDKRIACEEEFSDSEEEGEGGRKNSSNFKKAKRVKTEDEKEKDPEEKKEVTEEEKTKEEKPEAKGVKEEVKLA

[3] = biological target: T3, HDAC6 (Homo sapiens, UniProt Q9UBN7); test: HDAC6 (ZMAL) fluorogenic activity assay; assay type: biochemical; conditions: for inhibition at 1 µM / inhibition at 10 µM: read-out: HDAC6 (ZMAL) percent enzyme inhibition
T3 construct: purchased BPS Bioscience 50006
T3 sequence (Q9UBN7 1-1215): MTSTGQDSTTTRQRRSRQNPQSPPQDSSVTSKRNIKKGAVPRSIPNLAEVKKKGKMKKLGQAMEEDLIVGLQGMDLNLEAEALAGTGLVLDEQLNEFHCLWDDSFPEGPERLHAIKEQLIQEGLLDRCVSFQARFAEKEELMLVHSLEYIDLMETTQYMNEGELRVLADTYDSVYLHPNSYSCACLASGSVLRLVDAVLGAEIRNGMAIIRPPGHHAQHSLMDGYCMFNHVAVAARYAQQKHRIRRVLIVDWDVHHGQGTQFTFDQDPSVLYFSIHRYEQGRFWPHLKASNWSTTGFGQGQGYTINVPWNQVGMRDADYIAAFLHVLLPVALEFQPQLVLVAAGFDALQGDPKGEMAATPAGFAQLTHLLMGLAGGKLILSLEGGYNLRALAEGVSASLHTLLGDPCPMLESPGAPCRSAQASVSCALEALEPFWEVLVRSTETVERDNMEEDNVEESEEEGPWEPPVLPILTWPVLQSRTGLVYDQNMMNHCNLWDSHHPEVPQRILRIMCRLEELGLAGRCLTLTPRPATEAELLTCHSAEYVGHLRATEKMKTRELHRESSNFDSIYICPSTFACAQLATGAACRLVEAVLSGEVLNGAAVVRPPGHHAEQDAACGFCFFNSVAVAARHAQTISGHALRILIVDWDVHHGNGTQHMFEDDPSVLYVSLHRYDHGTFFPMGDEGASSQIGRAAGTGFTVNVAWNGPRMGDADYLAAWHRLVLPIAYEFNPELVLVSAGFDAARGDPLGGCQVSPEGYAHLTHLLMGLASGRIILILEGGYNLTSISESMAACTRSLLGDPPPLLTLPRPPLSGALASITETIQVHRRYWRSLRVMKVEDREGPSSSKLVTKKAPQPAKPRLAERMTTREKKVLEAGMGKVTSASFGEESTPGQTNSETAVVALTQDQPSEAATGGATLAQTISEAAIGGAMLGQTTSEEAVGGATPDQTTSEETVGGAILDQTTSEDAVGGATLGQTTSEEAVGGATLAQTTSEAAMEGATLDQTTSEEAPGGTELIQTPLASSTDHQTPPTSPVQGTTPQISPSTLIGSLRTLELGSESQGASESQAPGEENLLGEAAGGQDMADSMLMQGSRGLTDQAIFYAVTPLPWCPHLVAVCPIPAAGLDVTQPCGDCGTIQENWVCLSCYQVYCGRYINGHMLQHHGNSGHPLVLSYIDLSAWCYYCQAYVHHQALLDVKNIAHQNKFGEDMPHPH

[4] = biological target: T4, zebrafish HDAC10 (Danio rerio, UniProt F1QCV2); test: Zebrafish HDAC10 assay (zHDAC10), Ac-spermidine-AMC substrate; assay type: biochemical; conditions: for inhibition at 0.1 µM / inhibition at 1 µM / inhibition at 10 µM: read-out: zHDAC10 percent enzyme inhibition
T4 sequence (F1QCV2 1-675): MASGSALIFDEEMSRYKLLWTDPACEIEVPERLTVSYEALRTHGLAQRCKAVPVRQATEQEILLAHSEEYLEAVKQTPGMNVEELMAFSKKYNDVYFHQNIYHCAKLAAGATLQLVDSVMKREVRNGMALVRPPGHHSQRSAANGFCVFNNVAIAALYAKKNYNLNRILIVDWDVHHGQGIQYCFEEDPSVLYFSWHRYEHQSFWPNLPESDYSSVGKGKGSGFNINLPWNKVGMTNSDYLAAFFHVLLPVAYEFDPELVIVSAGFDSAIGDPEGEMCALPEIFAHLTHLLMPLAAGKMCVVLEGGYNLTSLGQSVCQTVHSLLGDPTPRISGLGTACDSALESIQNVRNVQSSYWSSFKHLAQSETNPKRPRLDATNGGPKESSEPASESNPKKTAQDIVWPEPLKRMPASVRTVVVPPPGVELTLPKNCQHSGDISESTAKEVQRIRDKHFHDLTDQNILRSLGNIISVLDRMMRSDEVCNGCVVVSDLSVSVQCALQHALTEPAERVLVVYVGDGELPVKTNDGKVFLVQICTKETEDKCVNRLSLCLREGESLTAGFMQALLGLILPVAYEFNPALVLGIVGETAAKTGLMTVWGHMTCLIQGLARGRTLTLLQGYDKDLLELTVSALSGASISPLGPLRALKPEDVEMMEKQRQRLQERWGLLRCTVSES

[5] = biological target: T5, HDAC8 (Homo sapiens, UniProt Q9BY41); test: HDAC8 (FDL) Fluor de Lys assay; assay type: biochemical; design: obtained from C; Romier (academic laboratory, not a vendor); conditions: for inhibition at 1 µM / inhibition at 10 µM: read-out: HDAC8 (FDL) percent enzyme inhibition
T5 sequence (Q9BY41 1-377): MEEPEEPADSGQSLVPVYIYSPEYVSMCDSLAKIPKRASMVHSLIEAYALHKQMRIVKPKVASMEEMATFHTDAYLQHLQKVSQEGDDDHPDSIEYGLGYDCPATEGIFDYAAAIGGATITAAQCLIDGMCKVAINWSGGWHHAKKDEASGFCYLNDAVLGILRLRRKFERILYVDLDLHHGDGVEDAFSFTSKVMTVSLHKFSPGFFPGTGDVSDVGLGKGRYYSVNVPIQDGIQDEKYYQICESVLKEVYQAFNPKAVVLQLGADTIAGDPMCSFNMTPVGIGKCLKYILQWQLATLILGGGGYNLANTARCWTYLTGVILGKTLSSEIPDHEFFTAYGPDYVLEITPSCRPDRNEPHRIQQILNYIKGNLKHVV

[6] = biological target: T2, HDAC1; test: HDAC-Glo I/II assay, HDAC1; assay type: biochemical; conditions: recombinant human HDAC1, HDAC-Glo; read-out: pIC50 HDAC1 Glo (converted)
[7] = biological target: T6, HDAC2 (Homo sapiens, UniProt Q92769); test: HDAC-Glo I/II assay, HDAC2; assay type: biochemical; conditions: recombinant human HDAC2, HDAC-Glo; read-out: pIC50 HDAC2 Glo (converted)
T6 construct: purchased BPS Bioscience 50002
T6 sequence (Q92769 whole entry): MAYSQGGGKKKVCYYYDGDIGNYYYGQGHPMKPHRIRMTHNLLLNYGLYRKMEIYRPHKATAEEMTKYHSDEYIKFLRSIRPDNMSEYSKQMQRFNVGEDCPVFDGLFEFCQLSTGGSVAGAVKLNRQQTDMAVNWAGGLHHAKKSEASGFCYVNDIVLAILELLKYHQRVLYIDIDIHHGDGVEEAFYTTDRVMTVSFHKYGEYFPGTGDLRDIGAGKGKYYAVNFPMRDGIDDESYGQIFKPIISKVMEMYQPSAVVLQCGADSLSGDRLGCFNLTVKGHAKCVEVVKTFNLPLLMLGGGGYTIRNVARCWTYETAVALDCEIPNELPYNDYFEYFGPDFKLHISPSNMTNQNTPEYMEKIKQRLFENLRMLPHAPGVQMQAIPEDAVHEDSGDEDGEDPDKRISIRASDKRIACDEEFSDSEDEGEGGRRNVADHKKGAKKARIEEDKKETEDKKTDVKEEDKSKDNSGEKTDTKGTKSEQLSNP

[8] = biological target: T7, HDAC3/NcoR2 complex (Homo sapiens, UniProt O15379); test: HDAC-Glo I/II assay, HDAC3/NcoR2 complex; assay type: biochemical; conditions: recombinant human HDAC3/NcoR2 complex, read-out: pIC50 HDAC3 Glo (converted)
T7 construct: purchased BPS Bioscience 50003
T7 sequence (O15379 whole entry): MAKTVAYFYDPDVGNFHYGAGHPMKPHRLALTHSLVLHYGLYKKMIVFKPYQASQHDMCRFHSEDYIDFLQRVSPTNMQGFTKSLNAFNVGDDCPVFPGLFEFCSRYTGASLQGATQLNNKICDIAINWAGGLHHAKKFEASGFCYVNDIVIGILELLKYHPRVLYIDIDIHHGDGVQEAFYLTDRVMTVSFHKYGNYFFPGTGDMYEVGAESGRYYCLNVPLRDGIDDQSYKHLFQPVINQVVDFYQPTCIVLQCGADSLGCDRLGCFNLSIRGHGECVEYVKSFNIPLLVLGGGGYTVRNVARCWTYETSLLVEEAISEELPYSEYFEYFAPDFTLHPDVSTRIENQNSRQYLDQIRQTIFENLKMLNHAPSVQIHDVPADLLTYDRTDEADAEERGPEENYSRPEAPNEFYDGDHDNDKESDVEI
T7 sequence (Q9Y618 395-489 partner limits assumed): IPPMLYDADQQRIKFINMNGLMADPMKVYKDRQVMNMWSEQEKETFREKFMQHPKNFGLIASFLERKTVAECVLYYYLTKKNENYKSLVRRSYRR

[9] = biological target: T3, HDAC6; test: HDAC-Glo I/II assay, HDAC6; assay type: biochemical; conditions: recombinant human HDAC6, HDAC-Glo; read-out: pIC50 HDAC6 Glo (converted)
[10] = biological target: T5, HDAC8; test: HDAC-Glo I/II assay, HDAC8; assay type: biochemical; design: purchased BPS Bioscience 50008; conditions: recombinant human HDAC8, HDAC-Glo; read-out: pIC50 HDAC8 Glo (converted)
[11] = biological target: T8, HDAC10-nanoluciferase fusion in HeLa cells (Homo sapiens, UniProt Q969S8); test: BRET intracellular target engagement assay, HDAC10
T8 sequence (Q969S8 1-669): T1 sequence (Q969S8 1-669)

[12] = two separate measurements, each made in triplicate, read-out: HDAC10 FRET IC50
[13] = TR-FRET, 60 min at rt, read-out: pIC50 HDAC10 FRET (converted)

Row | Compound | IC50 [1, 12] | inhibition at 1 µM [2] [%] | inhibition at 10 µM [2] [%] | inhibition at 1 µM [3] [%] | inhibition at 10 µM [3] [%] | inhibition at 0.1 µM [4] [%] | inhibition at 1 µM [4] [%] | inhibition at 10 µM [4] [%] | inhibition at 1 µM [5] [%] | inhibition at 10 µM [5] [%] | IC50 [6] [nM] | IC50 [7] [nM] | IC50 [8] [nM] | IC50 [9] [nM] | IC50 [1, 13] [nM] | IC50 [10] [nM] | other results
1 | O=C(NO)C1CCN(CCc2ccccc2)CC1 [DH22, N-Hydroxy-1-phenethylpiperidine-4-carboxamide] | 175 nM and 260 nM | -1 | 7 | -2 | 17 | 13 | 20 | 80 | 27 | 56 |  |  |  |  |  |  | 
2 | O=C(NO)C1CCN(CCNCc2ccc(Br)cc2)CC1 [DH88, 1-(2-((4-Bromobenzyl)amino)ethyl)-N-hydroxypiperidine-4-carboxamide] |  | -8 | 10 |  |  |  |  |  |  |  |  |  |  |  |  |  | IC50 [3]: 15000 ± 4000 nM; IC50 [4]: 37 ± 4 nM; IC50 [5]: 700 ± 50 nM
3 | O=C(NO)C1CCN(CCNCc2ccccc2)CC1 [DH79, 1-(2-(Benzylamino)ethyl)-N-hydroxypiperidine-4-carboxamide] |  | 6 | 20 | -15 | 0 |  |  |  |  |  |  |  |  |  |  |  | IC50 [4]: 64 ± 6 nM; IC50 [5]: 2000 ± 300 nM
4 | O=C(NO)C1CCN(Cc2ccc(-c3ccccc3)cc2)CC1 [DH35, 1-([1,1′-Biphenyl]-4-ylmethyl)-N-hydroxypiperidine-4-carboxamide] | 1780 nM and 2560 nM | 5 | 35 | 11 | 57 | 7 | 24 | 69 | 37 | 70 |  |  |  |  |  |  | 
5 | O=C(NO)C1CCN(CCCc2ccccc2)CC1 [DH53, N-Hydroxy-1-(3-phenylpropyl)-piperidine-4-carboxamide] |  | 2 | 29 | -23 | -3 | 0 | 19 | 68 | 20 | 48 |  |  |  |  |  |  | 
6 | O=C(NO)C1CCN(Cc2ccccc2)CC1 [DH25, 1-Benzyl-N-hydroxypiperidine-4-carboxamide] | 2450 nM and 3430 nM | 8 | 18 | 22 | 46 | 9 | 15 | 50 | 36 | 61 |  |  |  |  |  |  | 

Continued, in another order:

Row | IC50 [1, 12] | inhibition at 1 µM [2] [%] | inhibition at 10 µM [2] [%] | inhibition at 1 µM [3] [%] | inhibition at 10 µM [3] [%] | inhibition at 0.1 µM [4] [%] | inhibition at 1 µM [4] [%] | inhibition at 10 µM [4] [%] | inhibition at 1 µM [5] [%] | inhibition at 10 µM [5] [%] | IC50 [6] [nM] | IC50 [7] [nM] | IC50 [8] [nM] | IC50 [9] [nM] | IC50 [1, 13] [nM] | IC50 [10] [nM] | Compound | other results
7 |  |  |  |  |  |  |  |  |  |  | 7940 | > 100000 | > 100000 | 3160 | 7.94 | 12600 | CN(CCCC(=O)NO)CCNC(=O)c1ccc2cn[nH]c2c1 [DKFZ-754, N-(2-((4-(Hydroxyamino)-4-oxobutyl)(methyl)amino)ethyl)-1H-indazole-6-carboxamide] | 
8 |  |  |  |  |  |  |  |  |  |  | 10000 | 25100 | > 100000 | 1000 | 6.31 | 5010 | CN(CCCC(=O)NO)CCc1nc2ccccc2[nH]1 [DKFZ-773, 4-((2-(Benzimidazol-2-yl)ethyl)(methyl)amino)-N-hydroxybutanamide] | IC50 [11]: 126 nM; HDAC10/6 fold selectivity (BRET) ([11]; HDAC10 over HDAC6, from BRET): 315 fold
9 |  |  |  |  |  |  |  |  |  |  | 25100 | > 100000 | > 100000 | 6310 | 15.8 | 7940 | CN(CCCC(=O)NO)CCNC(=O)c1ccccc1Br [DKFZ-753, 2-Bromo-N-(2-((4-(hydroxyamino)-4-oxobutyl)(methyl)amino)ethyl)benzamide] | 
